We go through two compounds from US20240417371A1, “CANNABIDIOL DERIVATIVE, AND PREPARATION METHOD THEREFOR AND USE THEREOF” (priority 2021, published 2024).

For data set [1] the following is noted: high-purity CBD, background statement; cited from earlier work.
Data set [2] can be described thus: Solubility in water. The format is physicochemical. The source says: ^1[…]=0.8 Hz, 1[…]=7.6 Hz, 2[…]=6.8 Hz, 3H).

For the compound `C=C(C)[C@@H]1CCC(C)=C[C@H]1c1c(O)cc(CCCCC)cc1O` [CBD, 2-[(1R,6R)-3-methyl-6-(1-methylvinyl)-2-cyclohexen-1-yl]-5-pentyl-1,3-benzenediol], the “solubility in water” value in data set [1] is “almost insoluble in water”. As usually defined, the solubility is the concentration that dissolves in the medium under given conditions. In turn, `C=C(C)[C@@H]1CCC(C)=C[C@H]1c1c(OCC(=O)N[C@@H](CCSC)C(=O)[O-])cc(CCCCC)cc1OCC(=O)N[C@@H](CCSC)C(=O)[O-].[Na+].[Na+]` [Compound E2] registered a solubility in data set [2] of 200 mg/mL.
